Results reported in publication PMC7932537, “Quantitative profiling of protease specificity” (PLoS Computational Biology, 2021).

Legend:
MMP-2 = assay: Substrate phage display with NGS: relative probability (RP) of P3-P1' tetramer clusters; type: biochemical, human; conditions: for relative probability (RP) of matching tetramer: P3-P1' tetramer matching the MS detected MMP2 cleavage sequence, RP_above_4.5; for normalized RP - MMP2: normalized RP of matching tetramer; for MMP2 relative probability (RP): MMP2 tetramers from unique substrates, unrounded values; for avg_RP: MMP2 - no binning; for corresponding MMP2 relative probability (RP): MMP9 tetramers from unique substrates, RP of same tetramer for MMP2
MMP-9 = assay: as above; type: biochemical, human; conditions: for normalized RP - MMP9: normalized RP of matching tetramer; for corresponding MMP9 relative probability (RP): MMP2 tetramers from unique substrates, RP of same tetramer for MMP9; for MMP9 relative probability (RP): MMP9 tetramers from unique substrates, unrounded values
[1] = RP of matching tetramer, unique part of MMP2 selectome, RP above KL threshold
[2] = RP of matching tetramer, unique part of MMP2 selectome
[3] = RP according to MMP2, P3-P1' tetramer of unique physiologic MMP2 substrates from MEROPS
[4] = average relative probability of the tetramer, redundant tetramers averaged out
[5] = MMP2, RP of matching P3-P1' tetramer, common set of MMP2-9 selectome, RP above KL threshold
[6] = RP of matching tetramer, common MMP2-9 selectome
[7] = MMP9, RP of matching P3-P1' tetramer, common set of MMP2-9 selectome
[8] = MMP9, RP of the P3-P1' tetramer matching the MS detected cleavage, RP above 4.7, substrate phage display with NGS
[9] = RP of matching tetramer, common MMP2-9 selectome, RP above KL threshold
[10] = RP of the P3-P1' tetramer, MMP2 substrate phage display/NGS, tetramers of physiologic MEROPS substrates common to MMP2 and MMP9
[11] = RP of the P3-P1' tetramer, MMP9 substrate phage display/NGS, tetramers of physiologic MEROPS substrates common to MMP2 and MMP9
[12] = RP according to MMP9, P3-P1' tetramer of unique physiologic MMP9 substrates from MEROPS
[13] = RP of the P3-P1' tetramer cluster contained in the hexamer, 200 nM MMP-2, 2 h, 37°C, two rounds of selection
[14] = MMP9, RP of the P3-P1' tetramer contained in the hexamer substrate (substrate phage display, NGS)

## QAQL
MMP-2
  relative probability (RP) of matching tetramer: 6.16
MMP-2; [1]
  relative probability (RP) (acc.to MMP2): 6.16
MMP-2; unique part of MMP2 selectome
  normalized RP - MMP2: 0.1687
MMP-9; [2]
  relative probability (RP) (acc.to MMP9): 0.06
MMP-9; unique part of MMP2 selectome
  normalized RP - MMP9: 0.001145

## LGTY
MMP-2
  MMP2 relative probability (RP): 6.755
MMP-2; [3]
  Relative probability (RP) rank: 6426
  relative probability (RP): 6.75
MMP-9
  corresponding MMP9 relative probability (RP): 0.2972

## PRFL
MMP-2; [4]
  avg_RP: 28.4443
MMP-2; [5]
  relative probability (RP) (acc.to MMP2): 28.44
MMP-2
  relative probability (RP) of matching tetramer: 28.44
MMP-2; [6]
  relative probability (RP) (acc.to MMP2): 28.44
MMP-9; [7]
  relative probability (RP) (acc.to MMP9): 42.45
MMP-9; [8]
  relative probability (RP): 42.45
MMP-9; [9]
  relative probability (RP) (acc.to MMP9): 42.45

## YSNI
MMP-2; average relative probability of the P3-P1' tetramer, redundant tetramers have been averaged out
  avg_RP: 14.6847
MMP-2
  MMP2 relative probability (RP): 14.6847
MMP-2; [3]
  Relative probability (RP) rank: 3195
  relative probability (RP): 14.68
MMP-9
  corresponding MMP9 relative probability (RP): 0.05486

## PFLI
MMP-2
  corresponding MMP2 relative probability (RP): 22.6532
MMP-9
  MMP9 relative probability (RP): 0.05937

## PTGK
MMP-2; [10]
  relative probability (RP) (acc.to MMP2): 0.04
MMP-9; [11]
  relative probability (RP) (acc.to MMP9): 0

## PKGA
MMP-2; [10]
  relative probability (RP) (acc.to MMP2): 0
MMP-9; [11]
  relative probability (RP) (acc.to MMP9): 1.22

## ARAY
MMP-2; [5]
  relative probability (RP) (acc.to MMP2): 20.14
MMP-2
  relative probability (RP) of matching tetramer: 20.14
MMP-2; [6]
  relative probability (RP) (acc.to MMP2): 20.14
MMP-9; [7]
  relative probability (RP) (acc.to MMP9): 36.14
MMP-9; [8]
  relative probability (RP): 36.14
MMP-9; [9]
  relative probability (RP) (acc.to MMP9): 36.14

## VGKL
MMP-2
  MMP2 relative probability (RP): 21.0562
MMP-2; [3]
  Relative probability (RP) rank: 1553
  relative probability (RP): 21.06
MMP-9
  corresponding MMP9 relative probability (RP): 3.141
MMP-9; [12]
  Relative probability (RP) rank: 7569
  relative probability (RP): 3.14

## SDEL
MMP-2; [10]
  relative probability (RP) (acc.to MMP2): 0
MMP-9; [11]
  relative probability (RP) (acc.to MMP9): 0

## HFFK
MMP-2; [10]
  relative probability (RP) (acc.to MMP2): 0.14
MMP-9; [11]
  relative probability (RP) (acc.to MMP9): 0.27

## EPVSLA
MMP-2; [13]
  relative probability (RP): 32.502
MMP-9; [14]
  relative probability (RP): 42.3557

## PQGLAG
MMP-2; [13]
  relative probability (RP): 33.5241
MMP-9; [14]
  relative probability (RP): 47.8621

## AAAM
MMP-2; [5]
  relative probability (RP) (acc.to MMP2): 23.42
MMP-2
  relative probability (RP) of matching tetramer: 23.42
MMP-9; [7]
  relative probability (RP) (acc.to MMP9): 23.49

## HARL
MMP-2
  MMP2 relative probability (RP): 17.6482
MMP-2; [3]
  Relative probability (RP) rank: 2341
  relative probability (RP): 17.65
MMP-9
  corresponding MMP9 relative probability (RP): 0.3259

## FKNI
MMP-2; [10]
  relative probability (RP) (acc.to MMP2): 0.14
MMP-9; [11]
  relative probability (RP) (acc.to MMP9): 0.09

## PEGL
MMP-2; [10]
  relative probability (RP) (acc.to MMP2): 29.5
MMP-9; [11]
  relative probability (RP) (acc.to MMP9): 39.41

## FSPL
MMP-2
  MMP2 relative probability (RP): 14.7799
MMP-2; [3]
  Relative probability (RP) rank: 3161
  relative probability (RP): 14.78
MMP-9
  corresponding MMP9 relative probability (RP): 1.083

## SAPL
MMP-2
  relative probability (RP) of matching tetramer: 18.44
MMP-2; [1]
  relative probability (RP) (acc.to MMP2): 18.44
MMP-2; unique part of MMP2 selectome
  normalized RP - MMP2: 0.5049
MMP-9; [2]
  relative probability (RP) (acc.to MMP9): 2.49
MMP-9; unique part of MMP2 selectome
  normalized RP - MMP9: 0.04754

## GPHGYK
MMP-2; [13]
  relative probability (RP): 24.9359
MMP-9; [14]
  relative probability (RP): 44.1642

## APALWI
MMP-2; [13]
  relative probability (RP): 24.3606
MMP-9; [14]
  relative probability (RP): 27.3829

## WGAL
MMP-2; [4]
  avg_RP: 26.3441
MMP-2
  relative probability (RP) of matching tetramer: 26.34
MMP-2; [1]
  relative probability (RP) (acc.to MMP2): 26.34
MMP-2; unique part of MMP2 selectome
  normalized RP - MMP2: 0.7212
MMP-9; [2]
  relative probability (RP) (acc.to MMP9): 3.54
MMP-9; unique part of MMP2 selectome
  normalized RP - MMP9: 0.06758

## GPARPY
MMP-2; [13]
  relative probability (RP): 20.5004
MMP-9; [14]
  relative probability (RP): 36.8874

## AAAI
MMP-2; [5]
  relative probability (RP) (acc.to MMP2): 25.49
MMP-2
  relative probability (RP) of matching tetramer: 25.49
MMP-9; [7]
  relative probability (RP) (acc.to MMP9): 15.73

## PRPY
MMP-2; [5]
  relative probability (RP) (acc.to MMP2): 33.44
MMP-2
  relative probability (RP) of matching tetramer: 33.44
MMP-2; [6]
  relative probability (RP) (acc.to MMP2): 33.44
MMP-9; [7]
  relative probability (RP) (acc.to MMP9): 47.69
MMP-9; [8]
  relative probability (RP): 47.69
MMP-9; [9]
  relative probability (RP) (acc.to MMP9): 47.69

## EPKPLL
MMP-2; [13]
  relative probability (RP): 33.5622
MMP-9; [14]
  relative probability (RP): 48.2599

## LAPL [P3-P1' tetramer cluster]
MMP-2
  MMP2 relative probability (RP): 31.5631
MMP-2; [3]
  Relative probability (RP) rank: 227
  relative probability (RP): 31.56
MMP-2; tetramer clusters unique to the MMP-2 selectome, MMP-2 RP
  relative_probability: 31.56
MMP-9
  corresponding MMP9 relative probability (RP): 4.642

## PKFL [P3-P1' tetramer cluster]
MMP-2; [4]
  avg_RP: 23.745
MMP-9; tetramer projected onto MMP-9 cleavage sites determined by Prudova et al. (2010)
  relative probability (RP): 42.75

## VGEY
MMP-2
  MMP2 relative probability (RP): 13.6759
MMP-2; [3]
  Relative probability (RP) rank: 3547
  relative probability (RP): 13.68
MMP-9
  corresponding MMP9 relative probability (RP): 0.1188

## AKNL
MMP-2; [5]
  relative probability (RP) (acc.to MMP2): 16.7
MMP-2
  relative probability (RP) of matching tetramer: 16.7
MMP-2; [6]
  relative probability (RP) (acc.to MMP2): 16.7
MMP-9; [7]
  relative probability (RP) (acc.to MMP9): 32.82
MMP-9; [8]
  relative probability (RP): 32.82
MMP-9; [9]
  relative probability (RP) (acc.to MMP9): 32.82

## VYHQ
MMP-2
  corresponding MMP2 relative probability (RP): 13.6887
MMP-9
  MMP9 relative probability (RP): 0.1039

## IPLASL
MMP-2; [13]
  relative probability (RP): 31.1996
MMP-9; [14]
  relative probability (RP): 34.6637

## PDGL
MMP-2; [6]
  relative probability (RP) (acc.to MMP2): 6.23
MMP-9; [8]
  relative probability (RP): 23.13
MMP-9; [9]
  relative probability (RP) (acc.to MMP9): 23.13
